The target of test [1] is recombinant human EGFR L858R/C797S double mutant protein (Homo sapiens (Human), UniProt P00533, C797S/L858R). The test is described as follows: Biological Activity Assay B: biochemical assay against EGFR L858R/C797S protein (EGFR LR/CS). The method, boiled down:
(§1)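 IC50 values were fitted with a 4-parameter model to reaction slopes taken from 90 kinetic reads spaced 120 s apart. The Phosphosens sensor/ATP working solution was 40 uM/4 mM, and compound was dosed as 16-point dilutions at 2.5% final DMSO.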

Test [2] concerns the target recombinant human EGFR exon 19 deletion/C797S double mutant protein (Homo sapiens (Human), UniProt P00533, C797S/DEL746-750). The test can be described thus: Biological Activity Assay C: biochemical assay against EGFR exon 19 deletion/C797S protein (EGFR d19/CS). The method in brief: as §1
Test [3] deals with Ba/F3_EGFR WT cells. The test can be described thus: Biological Activity Assay D: BaF3 cell proliferation assay, EGFR wild-type (BaF3 WT). In kind it is cell-based. The note with it: Ba/F3 EGFR, read-out: BaF3 WT IC50.
For test [4], the system named is BaF3_EGFR LR/CS cells. The test is described as follows: Biological Activity Assay D: BaF3 cell proliferation assay, EGFR L858R/C797S mutant (BaF3 LR/CS). Type of test: cell-based. Particulars: Ba/F3 EGFR, read-out: BaF3 LR/CS IC50.
Test [5] deals with BaF3_EGFR d19/CS cells. The test can be described thus: Biological Activity Assay D: BaF3 cell proliferation assay, EGFR exon 19 deletion/C797S (BaF3 d19/CS). In kind it is cell-based. The note with it: Ba/F3 EGFR, read-out: BaF3 d19/CS IC50.
The mark [6] stands for this setting: Ba/F3_EGFR WT cells, ~72 hours, CellTiter-Glo.
[7] abbreviates: BaF3_EGFR LR/CS cells, ~72 hours, CellTiter-Glo.
[8] abbreviates: BaF3_EGFR d19/CS cells, ~72 hours, CellTiter-Glo.

Like-named read-outs stand apart in the source and are kept apart here.

Chain of recombinant human EGFR L858R/C797S double mutant protein (P00533 25-1210 C797S/L858R): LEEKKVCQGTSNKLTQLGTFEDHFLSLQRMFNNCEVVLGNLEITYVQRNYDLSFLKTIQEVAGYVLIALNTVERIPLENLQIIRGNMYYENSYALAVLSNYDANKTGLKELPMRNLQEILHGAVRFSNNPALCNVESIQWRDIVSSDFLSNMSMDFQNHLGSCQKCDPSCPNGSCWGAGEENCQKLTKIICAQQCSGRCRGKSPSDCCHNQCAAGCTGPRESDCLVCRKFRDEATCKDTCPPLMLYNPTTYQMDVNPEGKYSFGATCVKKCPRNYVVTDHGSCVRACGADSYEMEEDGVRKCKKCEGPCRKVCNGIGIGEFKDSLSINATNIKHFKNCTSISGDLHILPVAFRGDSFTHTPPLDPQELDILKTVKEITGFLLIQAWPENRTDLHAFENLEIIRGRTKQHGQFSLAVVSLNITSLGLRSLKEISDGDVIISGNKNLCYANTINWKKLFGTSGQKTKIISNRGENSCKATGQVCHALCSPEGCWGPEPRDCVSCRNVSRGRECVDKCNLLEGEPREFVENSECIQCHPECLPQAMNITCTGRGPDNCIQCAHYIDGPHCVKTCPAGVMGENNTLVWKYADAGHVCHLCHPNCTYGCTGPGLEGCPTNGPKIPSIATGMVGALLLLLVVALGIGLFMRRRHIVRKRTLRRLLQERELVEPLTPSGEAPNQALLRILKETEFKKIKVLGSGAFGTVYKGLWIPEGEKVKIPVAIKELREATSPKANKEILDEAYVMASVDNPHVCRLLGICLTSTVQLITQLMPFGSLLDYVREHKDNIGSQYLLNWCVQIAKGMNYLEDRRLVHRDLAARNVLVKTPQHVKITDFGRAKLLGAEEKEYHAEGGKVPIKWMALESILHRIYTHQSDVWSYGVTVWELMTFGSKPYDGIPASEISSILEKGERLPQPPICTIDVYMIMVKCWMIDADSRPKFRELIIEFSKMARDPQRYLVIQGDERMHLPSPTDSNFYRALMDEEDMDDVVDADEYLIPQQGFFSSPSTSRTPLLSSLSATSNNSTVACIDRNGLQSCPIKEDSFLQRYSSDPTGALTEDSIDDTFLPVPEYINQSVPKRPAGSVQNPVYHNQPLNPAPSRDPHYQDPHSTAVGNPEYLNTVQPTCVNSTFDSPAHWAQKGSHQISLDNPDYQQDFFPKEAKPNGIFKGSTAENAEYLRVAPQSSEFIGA
Chain of recombinant human EGFR exon 19 deletion/C797S double mutant protein (P00533 other isoform, or with tags, fused parts or gaps C797S/del 1-668/del 746-750 limits assumed): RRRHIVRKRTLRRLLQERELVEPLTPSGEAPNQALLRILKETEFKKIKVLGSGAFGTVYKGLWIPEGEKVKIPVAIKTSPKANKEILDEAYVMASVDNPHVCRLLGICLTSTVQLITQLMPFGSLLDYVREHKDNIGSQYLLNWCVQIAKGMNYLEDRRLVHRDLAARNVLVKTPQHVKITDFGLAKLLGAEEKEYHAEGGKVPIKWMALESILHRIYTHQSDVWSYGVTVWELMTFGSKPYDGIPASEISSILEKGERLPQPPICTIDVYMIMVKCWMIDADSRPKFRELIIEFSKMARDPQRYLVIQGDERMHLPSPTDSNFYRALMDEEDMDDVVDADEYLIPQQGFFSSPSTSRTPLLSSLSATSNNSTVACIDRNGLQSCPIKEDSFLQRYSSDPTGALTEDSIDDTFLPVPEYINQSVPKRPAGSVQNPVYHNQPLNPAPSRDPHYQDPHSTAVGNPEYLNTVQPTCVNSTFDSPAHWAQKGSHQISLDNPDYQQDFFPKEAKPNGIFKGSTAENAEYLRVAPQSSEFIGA

Consider `O=S1(=O)CCC(n2cc(-c3ncnc4oc(-c5ccccc5)cc34)c(-c3ccc(F)cc3)n2)C1` (stereo not shown) [Example 41, 3-[3-(4-fluorophenyl)-4-(6-phenylfuro[2,3-d]pyrimidin-4-yl)-1H-pyrazol-1-yl]-1λ6-thiolane-1,1-dione], for which the IC50 in test [1] came to 0.518 nM; in test [2] it was 0.375 nM; in test [3] (setting [6]), 2390 nM; in test [4] (setting [7]), 61.6 nM; in test [5] (setting [8]), 34.7 nM.

For `O[C@H]1C[C@@H](Cn2cc(-c3ncnc4oc(-c5ccccc5)cc34)c(-c3ccc(F)cc3)n2)C1` [Example 42, (1s, 3s)-3-{[3-(4-Fluorophenyl)-4-(6-phenylfuro[2,3-d]pyrimidin-4-yl)-1H-pyrazol-1-yl]methyl}cyclobutan-1-ol], the IC50 in test [1] is 0.527 nM; in test [2] it was 0.335 nM; in test [3] (setting [6]), 2090 nM; in test [4] (setting [7]), 57.5 nM; in test [5] (setting [8]), 37.5 nM.

`O[C@H]1C[C@H](Cn2cc(-c3ncnc4oc(-c5ccccc5)cc34)c(-c3ccc(F)cc3)n2)C1` [Example 43, (1r,3r)-3-{[3-(4-Fluorophenyl)-4-(6-phenylfuro[2,3-d]pyrimidin-4-yl)-1H-pyrazol-1-yl]methyl}cyclobutan-1-ol]: the IC50 in test [1] was determined as 0.39 nM; in test [2] it was 0.24 nM; in test [3] (setting [6]), 2240 nM; in test [4] (setting [7]), 73.2 nM; in test [5] (setting [8]) it was 40 nM.

For `CC(C)(O)CCc1nc(-c2ccc(F)cc2)c(-c2ncnc3oc(-c4ccccc4)cc23)o1` [Example 44, 4-[4-(4-fluorophenyl)-5-(6-phenylfuro[2,3-d]pyrimidin-4-yl)-1,3-oxazol-2-yl]-2-methylbutan-2-ol], the IC50 in test [1] is 2.76 nM; in test [2], 1.79 nM; in test [3] (setting [6]) it was 6650 nM; in test [4] (setting [7]), 263 nM; in test [5] (setting [8]), 421 nM.

Take `Fc1ccc(-c2nn(CCCC(F)F)cc2-c2ncnc3oc(-c4ccccc4)cc23)cc1` [Example 45, 4-[1-(4,4-Difluorobutyl)-3-(4-fluorophenyl)-1H-pyrazol-4-yl]-6-phenylfuro[2,3-d]pyrimidine]: the IC50 in test [1] came to 1.12 nM; in test [2] it was 1.51 nM; in test [3] (setting [6]), 2290 nM; in test [4] (setting [7]), 185 nM; in test [5] (setting [8]) it was 37.5 nM.

Regarding `CC(C)(O)Cn1cc(-c2ncnc3oc(-c4ccccc4)cc23)c(-c2ccc(F)cc2)n1` [Example 46, 1-[3-(4-Fluorophenyl)-4-(6-phenylfuro[2,3-d]pyrimidin-4-yl)-1H-pyrazol-1-yl]-2-methylpropan-2-ol], the IC50 came to 0.389 nM in test [1]; 0.317 nM in test [2]; 2160 nM in test [3] (setting [6]); 41.1 nM in test [4] (setting [7]); 21.1 nM in test [5] (setting [8]).

As to `Fc1ccc(-c2nn(CC3COC3)cc2-c2ncnc3oc(-c4ccccc4)cc23)cc1` [Example 47, 4-{3-(4-Fluorophenyl)-1-[(oxetan-3-yl)methyl]-1H-pyrazol-4-yl}-6-phenylfuro[2,3-d]pyrimidine], the IC50 is 0.594 nM in test [1]; 0.473 nM in test [2]; 4530 nM in test [3] (setting [6]); 92.5 nM in test [4] (setting [7]); 72.5 nM in test [5] (setting [8]).

In the case of `NC(=O)CCc1nc(-c2ccc(F)cc2)c(-c2ncnc3oc(-c4ccccc4)cc23)o1` [Example 49, 3-[4-(4-fluorophenyl)-5-(6-phenylfuro[2,3-d]pyrimidin-4-yl)-1,3-oxazol-2-yl]propanamide], the IC50 in test [1] turned out to be 3.42 nM; in test [2] it was 1.77 nM; in test [3] (setting [6]), 20000 nM; in test [4] (setting [7]), 132 nM; in test [5] (setting [8]) it was 250 nM.

Regarding `CN(C)S(=O)(=O)CCn1cc(-c2ncnc3oc(-c4ccccc4)cc23)c(-c2ccc(F)cc2)n1` [Example 50, 2-[3-(4-fluorophenyl)-4-(6-phenylfuro[2,3-d]pyrimidin-4-yl)-1H-pyrazol-1-yl]-N,N-dimethylethane-1-sulfonamide], the IC50 is 0.635 nM in test [1]; 1.02 nM in test [2]; 2080 nM in test [3] (setting [6]); 241 nM in test [4] (setting [7]); 59.1 nM in test [5] (setting [8]).

Consider `CN(C)S(=O)(=O)n1cc(-c2ncnc3oc(-c4ccccc4)cc23)c(-c2ccc(F)cc2)n1` [Example 51, 3-(4-fluorophenyl)-N,N-dimethyl-4-(6-phenylfuro[2,3-d]pyrimidin-4-yl)-1H-pyrazole-1-sulfonamide], for which the IC50 worked out at 17.1 nM in test [1]; 27.2 nM in test [2]; 10700 nM in test [3] (setting [6]); 770 nM in test [4] (setting [7]); 972 nM in test [5] (setting [8]).

`O=S1(=O)CC(CCn2cc(-c3ncnc4oc(-c5ccccc5)cc34)c(-c3ccc(F)cc3)n2)C1` [Example 52, 3-{2-[3-(4-Fluorophenyl)-4-(6-phenylfuro[2,3-d]pyrimidin-4-yl)-1H-pyrazol-1-yl]ethyl}-1λ6-thietane-1,1-dione]: the IC50 was found to be 0.307 nM in test [1]; 0.368 nM in test [2]; 1940 nM in test [3] (setting [6]); 106 nM in test [4] (setting [7]); 20.8 nM in test [5] (setting [8]).

Consider `O[C@H]1C[C@H](Cn2ncc(-c3ncnc4oc(-c5ccccc5)cc34)c2-c2ccc(F)cc2)C1` [Example 54, (1r,3r)-3-{[5-(4-fluorophenyl)-4-(6-phenylfuro[2,3-d]pyrimidin-4-yl)-1H-pyrazol-1-yl]methyl}cyclobutan-1-ol], for which the IC50 in test [1] was 15.8 nM; in test [2], 20.1 nM; in test [3] (setting [6]), 8860 nM; in test [4] (setting [7]), 992 nM; in test [5] (setting [8]), 837 nM.

As for `CS(=O)(=O)CCCn1cc(-c2ncnc3oc(-c4ccccc4)cc23)c(-c2ccc(F)cc2)n1` [Example 55, 4-{3-(4-Fluorophenyl)-1-[3-(methanesulfonyl)propyl]-1H-pyrazol-4-yl}-6-phenylfuro[2,3-d]pyrimidine], the IC50 was 0.247 nM in test [1]; 0.29 nM in test [2]; 1280 nM in test [3] (setting [6]); 78.5 nM in test [4] (setting [7]); 21.4 nM in test [5] (setting [8]).

Regarding `CS(=O)(=O)n1ncc(-c2ncnc3oc(-c4ccccc4)cc23)c1-c1ccc(F)cc1` [Example 56, 4-[5-(4-fluorophenyl)-1-(methanesulfonyl)-1H-pyrazol-4-yl]-6-phenylfuro[2,3-d]pyrimidine], the IC50 stood at 3.58 nM in test [1]; 4.58 nM in test [2]; 5490 nM in test [3] (setting [6]); 224 nM in test [4] (setting [7]); 184 nM in test [5] (setting [8]).

`CC(C)(O)CCc1nc(-c2ccc(F)cc2)c(-c2ncnc3oc(-c4ccccc4)nc23)o1` [Example 57, 4-[4-(4-fluorophenyl)-5-(2-phenyl[1,3]oxazolo[5,4-d]pyrimidin-7-yl)-1,3-oxazol-2-yl]-2-methylbutan-2-ol]: the IC50 came out at 16.8 nM in test [1]; 10.3 nM in test [2]; 7390 nM in test [3] (setting [6]); 689 nM in test [4] (setting [7]); 1290 nM in test [5] (setting [8]).

As for `CC(O)Cn1cc(-c2ncnc3oc(-c4ccccc4)cc23)c(-c2ccc(F)cc2)n1` (stereo not shown) [Example 58, 1-[3-(4-Fluorophenyl)-4-(6-phenylfuro[2,3-d]pyrimidin-4-yl)-1H-pyrazol-1-yl]propan-2-ol], the IC50 in test [1] was 0.349 nM; in test [2] it was 0.177 nM; in test [3] (72 h) it was 2100 nM; in test [4] (72 h), 58.2 nM; in test [5] (72 h) it was 43.7 nM.

Consider `CC1(Cn2cc(-c3ncnc4oc(-c5ccccc5)cc34)c(-c3ccc(F)cc3)n2)COC1` [Example 59, 4-{3-(4-fluorophenyl)-1-[(3-methyloxetan-3-yl)methyl]-1H-pyrazol-4-yl}-6-phenylfuro[2,3-d]pyrimidine], for which the IC50 in test [1] stood at 1.27 nM; in test [2], 0.752 nM; in test [3] (setting [6]), 5950 nM; in test [4] (setting [7]) it was 236 nM; in test [5] (setting [8]), 213 nM.

On to `Fc1ccc(-c2n[nH]cc2-c2ncnc3oc(-c4ccccc4)cc23)cc1` [Example 60, 4-[3-(4-Fluorophenyl)-1H-pyrazol-4-yl]-6-phenylfuro[2,3-d]pyrimidine], for which the IC50 was 0.526 nM in test [1]; 0.419 nM in test [2]; 2270 nM in test [3] (setting [6]); 88.3 nM in test [4] (setting [7]); 118 nM in test [5] (setting [8]).

For `CN(C)S(=O)(=O)CCCn1cc(-c2ncnc3oc(-c4ccccc4)cc23)c(-c2ccc(F)cc2)n1` [Example 61, 3-[3-(4-Fluorophenyl)-4-(6-phenylfuro[2,3-d]pyrimidin-4-yl)-1H-pyrazol-1-yl]-N,N-dimethylpropane-1-sulfonamide], the IC50 worked out at 0.601 nM in test [1]; 0.907 nM in test [2]; 1140 nM in test [3] (setting [6]); 73.2 nM in test [4] (setting [7]); 24.4 nM in test [5] (setting [8]).

`CC(O)CCn1cc(-c2ncnc3oc(-c4ccccc4)cc23)c(-c2ccc(F)cc2)n1` (stereo not shown) [Example 62, 4-[3-(4-Fluorophenyl)-4-(6-phenylfuro[2,3-d]pyrimidin-4-yl)-1H-pyrazol-1-yl]butan-2-ol]: the IC50 in test [1] is 0.527 nM; in test [2], 0.703 nM; in test [3] (setting [6]), 1150 nM; in test [4] (setting [7]), 45 nM; in test [5] (setting [8]), 30.1 nM.

For the origin of these results see patent publication US20250034159A1, “INHIBITORS OF EPIDERMAL GROWTH FACTOR RECEPTOR” (ORIC Pharmaceuticals, Inc., priority 2021, published 2025).
